Source: publication PMC6273746, “Molecular Mechanism of the Flavonoid Natural Product Dryocrassin ABBA against Staphylococcus aureus Sortase A” (Molecules, 2016)

What was measured:
Format in all cases: binding
[1] = biological target: T1, sortase A (SrtA), WT-SrtA (Staphylococcus aureus, UniProt Q2FV99); test: fluorescence quenching (KA); also FRET inhibition of purified SrtA, IC50 […]
T1 construct: SrtA△N59, recombinant, GST tag cleaved

[2] = biological target: T2, sortase A (SrtA), V168A-SrtA (Staphylococcus aureus, UniProt Q2FV99, V168A); test: fluorescence quenching (KA); reduced inhibition versus WT in FRET assay at […]
T2 construct: SrtA△N59, recombinant, GST tag cleaved

[3] = biological target: T3, sortase A (SrtA), V166A-SrtA (Staphylococcus aureus, UniProt Q2FV99, V166A); test: as above
T3 construct: SrtA△N59, recombinant, GST tag cleaved

With `CCCC(=O)c1c(O)c(CC2=C(O)C(C)(C)C(=O)C(C(C)=O)=C2O)c(O)c(Cc2c(O)c(CC3=C(O)C(C)(C)C(=O)C(C(C)=O)=C3O)c(O)c(C(=O)CCC)c2O)c1O` [ABBA, dryocrassin ABBA] as the compound, how does the Kd [1] read?
Its Kd is 2.18 µM.

What about the Kd [2] of the same compound?
The Kd was 2.79 µM.

And the Kd [3]?
Its Kd is 2.3 µM.
